In paper PMC5554727 (The Journal of steroid biochemistry and molecular biology, 2017) one finds IC50 data, which are given here for one compound.

In the assay the target is SULT1A1 (Homo sapiens, UniProt P50225). The assay is described as follows: inhibition of sulfonation of […]C-p-nitrophenol by recombinant enzyme. In kind it is biochemical.

Structures are written as SMILES. pIC50: −log10 of the molar value.

SULT1A1, sequence (P50225 whole entry): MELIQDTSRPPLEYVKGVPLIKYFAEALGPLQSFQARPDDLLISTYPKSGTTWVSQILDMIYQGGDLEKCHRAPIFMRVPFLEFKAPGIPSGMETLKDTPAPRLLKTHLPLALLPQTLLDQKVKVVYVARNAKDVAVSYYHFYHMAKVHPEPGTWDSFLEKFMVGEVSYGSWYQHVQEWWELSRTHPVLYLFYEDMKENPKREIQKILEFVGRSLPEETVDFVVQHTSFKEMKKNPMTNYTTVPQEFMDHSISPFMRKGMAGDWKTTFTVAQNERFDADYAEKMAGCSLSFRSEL

On to `Cc1ccc(-c2cc(C(F)(F)F)nn2-c2ccc(S(N)(=O)=O)cc2)cc1` [celecoxib], for which the pIC50 (usually −log10 of the IC50, conventionally taken in molar units) is 5.68.
